The values below come from US20160183577A1, “Transglucosylated Rubus suavissimus Extract and Methods of Preparation and Use” (INTERNATIONAL FLAVORS & FRAGRANCES INC., priority 2014, published 2016).

The structures appear in SMILES notation.

The nature of this assay: Sensory evaluation of sweetness and mouthfeel of solutions in sucrose base solution (Example II). In kind it is in vivo. The following applies: in sucrose base solution (4% in water), sucrose 1.5%, Reb-A 30 ppm, sucralose 20 ppm, rubusoside 45 ppm, Preparations at total rubusoside 45 ppm; for Mouthfeel: averaged score of 0 to 10 (0=none, 1=barely detectable, 2=weak, 4=weak-moderate, 6=moderate, 8=moderate-strong, 10=extremely strong); for Sweetness: averaged score of 0 to 10 (0=none, 10=extremely strong). On the procedure:
Isosweet solutions of sucrose (1.5%), rebaudioside A (“Reb-A”) (30 ppm), sucralose (20 ppm) and rubusoside (45 ppm) were prepared in a sucrose base solution (4% in water). Additional solutions of the transglucosylated R. suavissimus extract prepared with different rubusoside transglucosylation rates including Preparation I, II and III (prepared as above in EXAMPLE I) were also prepared, wherein the total rubusoside concentrations were equalized to 45 ppm.
Sweetness and mouthfeel of the obtained solutions were evaluated using a score of 0 to 10, where 0=none, 1=barely detectable, 2=weak, 4=weak-moderate, 6=moderate, 8=moderate-strong and 10=extremely strong.

The molecule `C=C1C[C@@]23CC[C@H]4[C@@](C)(CCC[C@@]4(C)C(=O)O[C@@H]4O[C@H](CO)[C@@H](O)[C@H](O)[C@H]4O)[C@@H]2CC[C@]1(O[C@@H]1O[C@H](CO)[C@@H](O)[C@H](O[C@@H]2O[C@H](CO)[C@@H](O)[C@H](O)[C@H]2O)[C@H]1O[C@@H]1O[C@H](CO)[C@@H](O)[C@H](O)[C@H]1O)C3` [Reb-A, rebaudioside A] displayed a Mouthfeel of 3 and a Sweetness of 5.
`C=C1C[C@@]23CC[C@H]4[C@@](C)(CCC[C@@]4(C)C(=O)O[C@@H]4O[C@H](CO)[C@@H](O)[C@H](O)[C@H]4O)[C@@H]2CC[C@]1(O[C@@H]1O[C@H](CO)[C@@H](O)[C@H](O)[C@H]1O)C3` [Rubusoside, rubusoside] gave a Mouthfeel of 4 and a Sweetness of 5.
For `OC[C@H]1O[C@H](O[C@]2(CCl)O[C@H](CCl)[C@@H](O)[C@@H]2O)[C@H](O)[C@@H](O)[C@H]1Cl` [Sucralose, sucralose], in that order: 3 and 5.
The matching figures for `OC[C@H]1O[C@@](CO)(O[C@H]2O[C@H](CO)[C@@H](O)[C@H](O)[C@H]2O)[C@@H](O)[C@@H]1O` [Sucrose, sucrose]: 7 and 5.
